Tests used:
[1] = target: T1, 5-hydroxytryptamine receptor 1A (Rattus norvegicus, UniProt P19327); assay: In vitro binding affinity towards 5-hydroxytryptamine 1A receptor was determined using [3H]8-OH-DPAT as radioligand in rat cerebral cortex membranes; […]; type: cell membranes
T1 sequence (P19327 whole entry): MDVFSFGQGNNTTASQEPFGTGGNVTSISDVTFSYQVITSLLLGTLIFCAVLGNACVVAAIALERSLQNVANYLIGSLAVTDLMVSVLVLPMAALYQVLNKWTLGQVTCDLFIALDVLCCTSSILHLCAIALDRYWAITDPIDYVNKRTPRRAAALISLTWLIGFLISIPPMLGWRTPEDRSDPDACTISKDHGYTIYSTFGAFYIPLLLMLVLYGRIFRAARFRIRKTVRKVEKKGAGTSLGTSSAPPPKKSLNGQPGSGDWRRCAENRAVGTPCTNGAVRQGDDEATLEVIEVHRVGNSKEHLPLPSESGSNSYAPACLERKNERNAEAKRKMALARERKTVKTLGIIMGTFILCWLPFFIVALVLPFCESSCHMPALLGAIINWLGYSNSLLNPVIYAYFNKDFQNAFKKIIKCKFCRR

[2] = target: T1, 5-hydroxytryptamine receptor 1A; assay: In vitro binding affinity towards 5-hydroxytryptamine 1A receptor was determined using [3H]8-OH-DPAT as radioligand in rat cerebral cortex membranes; type: cell membranes, Membrane

SMILES | Ki [1] | Ki [2]
c1ccc(C(c2ccccc2)(c2ccccc2)n2cnc3c(N4CCNCC4)cccc32)cc1 | Not Active | 
O=C1C2CCCN2C(=O)N1CCCCN1CCN(c2cccc3[nH]cnc23)CC1 (centres undefined) |  | 1.21 nM
CN1CCN(c2cccc3[nH]cnc23)CC1 |  | 4.72 nM
CN1CCN(c2cccc3c2ncn3C(c2ccccc2)(c2ccccc2)c2ccccc2)CC1 | Not Active | 

Reference: ChEMBL document CHEMBL1131837, “Synthesis of new (benzimidazolyl)piperazines with affinity for the 5-HT1A receptor via Pd(0) amination of bromobenzimidazoles” (Bioorg Med Chem Lett, 1999)
